Common to all, as to assay: relative viability (nuclei count vs DMSO), 5 days (fraction); higher = more cells survive
Compound in assay [1]: C=CC(=O)Nc1cc(-n2c(=O)ccc3cnc4ccc(-c5ccc(NS(C)(=O)=O)cc5)cc4c32)ccc1C [BMX-IN-1] + CS(=O)(=O)N1CCN(Cc2cc3nc(-c4cccc5[nH]ncc45)nc(N4CCOCC4)c3s2)CC1 [Pictilisib] (partner 1 µM)
In a few lines:
(§1)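 Lung cancer cell lines, seeded in 1536-well plates, were treated the following day by pin tool with a single drug or with five library-drug doses (not always all listed) in √10 steps on top of a fixed anchor-drug dose. Cells were fixed and nuclei stained in one step after 5 days, and nuclei were counted. Relative viability is the nuclei count for treated wells divided by that for vehicle wells, reported as medians of duplicate plates.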

Compound in assay [2]: C=CCc1cccc(/C=N/NC(=O)CN2CCN(Cc3ccccc3)CC2)c1O [PAC-1] + Cc1cc(Nc2cc(N3CCN(C)CC3)nc(Sc3ccc(NC(=O)C4CC4)cc3)n2)n[nH]1 [Tozasertib] (partner 0.1 µM)
The procedure, abridged: as §1

Compound in assay [3]: C=CC(=O)N1CCC[C@@H](n2nc(-c3ccc(Oc4ccccc4)cc3)c3c(N)ncnc32)C1 [Ibrutinib] + C[C@]1(O)C[C@@H](c2nc(-c3ccc4ccc(-c5ccccc5)nc4c3)c3c(N)nccn32)C1 [Linsitinib] (partner 1 µM)
The procedure, abridged: as §1

Compound in assay [4]: C=CC(=O)N1CCC[C@@H](n2nc(-c3ccc(Oc4ccccc4)cc3)c3c(N)ncnc32)C1 [Ibrutinib] + COc1cc2c(Oc3ccc(NC(=O)C4(C(=O)Nc5ccc(F)cc5)CC4)cc3F)ccnc2cc1OCCCN1CCOCC1 [Foretinib] (partner 0.25 µM)
In a few lines:
as §1

Take NCI-H650: the relative viability in assay [1] (first compound 0.02 µM) amounted to 1.02; in assay [1] (first compound 0.2 µM), 0.826; in assay [1] (first compound 0.6325 µM), 0.872; in assay [1] (first compound 2 µM), 0.772; in assay [2] (first compound 0.02 µM), 0.73; in assay [2] (first compound 0.06325 µM), 0.791. The relative viability in assay [2] (first compound 0.2 µM) worked out at 0.749; in assay [2] (first compound 2 µM), 0.721; in assay [3] (first compound 0.01581 µM) it was 0.688; in assay [3] (first compound 0.1581 µM), 1.19; in assay [3] (first compound 0.5 µM), 0.889; in assay [4] (first compound 0.005 µM), 1.07. For the same cell line, the relative viability in assay [4] (first compound 0.01581 µM) was 0.94; in assay [4] (first compound 0.05 µM), 1.09; in assay [4] (first compound 0.1581 µM), 1.25; in assay [4] (first compound 0.5 µM), 1.17.

With EPLC-272H, the relative viability was 0.35 in assay [1] (first compound 0.02 µM); 0.31 in assay [1] (first compound 0.2 µM); 0.304 in assay [1] (first compound 0.6325 µM); 0.377 in assay [1] (first compound 2 µM); 0.257 in assay [2] (first compound 0.02 µM); 0.314 in assay [2] (first compound 0.06325 µM). For the same cell line, the relative viability in assay [2] (first compound 0.2 µM) stood at 0.273; in assay [2] (first compound 2 µM) it was 0.278; in assay [3] (first compound 0.01581 µM), 1.07; in assay [3] (first compound 0.05 µM) it was 1.31; in assay [3] (first compound 0.1581 µM) it was 1.25; in assay [3] (first compound 0.5 µM), 0.771. Further, the relative viability in assay [4] (first compound 0.005 µM) turned out to be 0.675; in assay [4] (first compound 0.01581 µM), 0.474; in assay [4] (first compound 0.05 µM), 0.409; in assay [4] (first compound 0.1581 µM), 0.584; in assay [4] (first compound 0.5 µM) it was 0.434.

As to LXF-289, the relative viability in assay [1] (first compound 0.02 µM) was determined as 0.808; in assay [1] (first compound 0.2 µM) it was 0.863; in assay [1] (first compound 0.6325 µM), 0.88; in assay [1] (first compound 2 µM) it was 0.761; in assay [2] (first compound 0.02 µM), 0.148; in assay [2] (first compound 0.06325 µM), 0.234. Further, the relative viability in assay [2] (first compound 0.2 µM) turned out to be 0.197; in assay [2] (first compound 2 µM), 0.165; in assay [3] (first compound 0.005 µM), 0.988; in assay [3] (first compound 0.01581 µM), 0.96; in assay [3] (first compound 0.05 µM) it was 0.923; in assay [3] (first compound 0.1581 µM), 0.955. The relative viability in assay [3] (first compound 0.5 µM) worked out at 0.927; in assay [4] (first compound 0.005 µM), 0.946; in assay [4] (first compound 0.01581 µM), 0.958; in assay [4] (first compound 0.05 µM), 0.995; in assay [4] (first compound 0.1581 µM), 0.917; in assay [4] (first compound 0.5 µM) it was 0.956.

On to LOU-NH91, for which the relative viability in assay [1] (first compound 0.2 µM) was found to be 0.509; in assay [1] (first compound 0.6325 µM), 0.546; in assay [1] (first compound 2 µM), 0.512; in assay [2] (first compound 0.02 µM), 0.624; in assay [2] (first compound 0.06325 µM), 0.7; in assay [2] (first compound 0.2 µM) it was 0.645. The relative viability in assay [2] (first compound 2 µM) worked out at 0.679; in assay [3] (first compound 0.005 µM), 0.834; in assay [3] (first compound 0.01581 µM), 0.733; in assay [3] (first compound 0.05 µM), 0.739; in assay [3] (first compound 0.1581 µM), 0.892; in assay [3] (first compound 0.5 µM), 0.492. Further, the relative viability worked out at 0.861 in assay [4] (first compound 0.005 µM); 0.769 in assay [4] (first compound 0.01581 µM); 0.679 in assay [4] (first compound 0.05 µM); 0.913 in assay [4] (first compound 0.1581 µM); 0.568 in assay [4] (first compound 0.5 µM).

On to LCLC-103H, for which the relative viability is 0.636 in assay [1] (first compound 0.02 µM); 0.612 in assay [1] (first compound 0.2 µM); 0.684 in assay [1] (first compound 0.6325 µM); 0.609 in assay [1] (first compound 2 µM); 0.56 in assay [2] (first compound 0.02 µM); 0.492 in assay [2] (first compound 0.06325 µM). The relative viability was 0.494 in assay [2] (first compound 0.2 µM); 0.463 in assay [2] (first compound 2 µM); 1.28 in assay [3] (first compound 0.005 µM); 1.16 in assay [3] (first compound 0.01581 µM); 1.09 in assay [3] (first compound 0.05 µM); 1.1 in assay [3] (first compound 0.1581 µM). Also, the relative viability in assay [3] (first compound 0.5 µM) amounted to 1.03; in assay [4] (first compound 0.005 µM), 0.809; in assay [4] (first compound 0.01581 µM), 0.623; in assay [4] (first compound 0.05 µM) it was 0.792; in assay [4] (first compound 0.1581 µM) it was 0.835; in assay [4] (first compound 0.5 µM) it was 0.728.

On to NCI-H1944, for which the relative viability in assay [1] (first compound 0.02 µM) amounted to 0.386; in assay [1] (first compound 0.2 µM), 0.352; in assay [1] (first compound 0.6325 µM), 0.387; in assay [1] (first compound 2 µM), 0.336; in assay [2] (first compound 0.02 µM) it was 0.231; in assay [2] (first compound 0.06325 µM), 0.247. In addition, the relative viability in assay [2] (first compound 0.2 µM) was found to be 0.236; in assay [2] (first compound 2 µM) it was 0.246; in assay [3] (first compound 0.005 µM), 1.05; in assay [3] (first compound 0.01581 µM) it was 1.01; in assay [3] (first compound 0.05 µM), 1.23; in assay [3] (first compound 0.1581 µM), 1.05. Moreover, the relative viability was found to be 0.568 in assay [3] (first compound 0.5 µM); 0.891 in assay [4] (first compound 0.005 µM); 0.734 in assay [4] (first compound 0.01581 µM); 0.72 in assay [4] (first compound 0.05 µM); 0.879 in assay [4] (first compound 0.1581 µM); 0.605 in assay [4] (first compound 0.5 µM).

For the cell line NCI-H460, the relative viability in assay [1] (first compound 0.02 µM) turned out to be 0.376; in assay [1] (first compound 0.2 µM), 0.511; in assay [1] (first compound 0.6325 µM), 0.371; in assay [1] (first compound 2 µM), 0.501; in assay [2] (first compound 0.02 µM), 0.356; in assay [2] (first compound 0.06325 µM), 0.453. The relative viability in assay [2] (first compound 0.2 µM) was 0.394; in assay [2] (first compound 2 µM), 0.542; in assay [3] (first compound 0.005 µM), 0.643; in assay [3] (first compound 0.01581 µM) it was 0.652; in assay [3] (first compound 0.05 µM) it was 0.861; in assay [3] (first compound 0.1581 µM) it was 0.76. For the same cell line, the relative viability stood at 0.772 in assay [3] (first compound 0.5 µM); 1.06 in assay [4] (first compound 0.005 µM); 0.909 in assay [4] (first compound 0.01581 µM); 1.01 in assay [4] (first compound 0.1581 µM); 0.992 in assay [4] (first compound 0.5 µM).

For the cell line NCI-H358, the relative viability came out at 0.387 in assay [1] (first compound 0.02 µM); 0.313 in assay [1] (first compound 0.2 µM); 0.393 in assay [1] (first compound 0.6325 µM); 0.336 in assay [1] (first compound 2 µM); 0.103 in assay [2] (first compound 0.02 µM); 0.101 in assay [2] (first compound 0.06325 µM). Besides, the relative viability in assay [2] (first compound 0.2 µM) worked out at 0.0952; in assay [2] (first compound 2 µM) it was 0.109; in assay [3] (first compound 0.005 µM), 0.563; in assay [3] (first compound 0.01581 µM), 0.394; in assay [3] (first compound 0.05 µM) it was 0.355; in assay [3] (first compound 0.1581 µM) it was 0.743. In addition, the relative viability in assay [3] (first compound 0.5 µM) was 0.28; in assay [4] (first compound 0.005 µM), 0.294; in assay [4] (first compound 0.05 µM), 0.35; in assay [4] (first compound 0.1581 µM), 0.551; in assay [4] (first compound 0.5 µM), 0.291.
